Experimental findings from patent US11298355B2 (Aerovate Therapeutics, Inc., priority 2019, dated 2022) are described below.

The nature of this data set: Thermal stability and polymorphism of imatinib salts. Format: physicochemical. Particulars: imatinib salt forms.

As for malate, the “thermal stability and polymorphic forms” value was “suitable thermal stability and few or single polymorphic forms”.
tartrate: the “thermal stability and polymorphic forms” value is “suitable thermal stability and few or single polymorphic forms”.
In the case of malonate, the “thermal stability and polymorphic forms” value is “suitable thermal stability and few or single polymorphic forms”.
For the compound `O=S(=O)(O)CCO` [isethionate], the “thermal stability and polymorphic forms” value was “suitable thermal stability and few or single polymorphic forms”.
